From patent US10556888B2, “Pyrazole compounds or salts thereof, preparation methods therefor, herbicidal compositions and use thereof” (QINGDAO KINGAGROOT CHEMICAL COMPOUNDS CO., LTD, priority 2015, dated 2020)

Tests used:
[1] = test system: Monocotyledonous and dicotyledonous weed; test: Post-emergence test experiment, weed control effect (Table 2); type: in vivo; set-up: key to weed control effect, Setaria viridis (level) / weed control effect, Rorippa indica (level) / weed control effect, Abutilon theophrasti (level) / weed control effect, Echinochloa crus-galli (level) / weed control effect, Digitaria sanguinalis (level): Level 10: completely dead; Level 9: above 90% growth inhibition rate; Level 8: above 80% growth inhibition rate; Level 7: above 70% growth inhibition rate; Level 6: above 60% growth inhibition rate; Level 5: above 50% growth inhibition rate; Level 4: above 30% growth inhibition rate; Level 3: above 20% growth inhibition rate; Level 2: above 10% growth inhibition rate; Level 1: above 1-10% growth inhibition rate; Level 0: no effect; settings: 30 g/ha, 3 weeks after spraying, greenhouse
How it was run: (§1)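 Compounds, dissolved in acetone, mixed with Tween 80 and diluted in water, were sprayed post-emergence onto greenhouse-grown weeds and crops at the 2-3 leaf stage (2-3 weeks post-sowing). Plants then grown 3 more weeks in the greenhouse before evaluation.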

[2] = test system: main crop (wheat, corn, rice, soybean, cotton, oilseed, millet and sorghum); test: Post-emergence test experiment, main crops (Table 2); type: in vivo; set-up: key: Level 10: completely dead; Level 9: above 90% growth inhibition rate; Level 8: above 80% growth inhibition rate; Level 7: above 70% growth inhibition rate; Level 6: above 60% growth inhibition rate; Level 5: above 50% growth inhibition rate; Level 4: above 30% growth inhibition rate; Level 3: above 20% growth inhibition rate; Level 2: above 10% growth inhibition rate; Level 1: above 1-10% growth inhibition rate; Level 0: no effect; settings: 30 g/ha, 3 weeks after spraying, greenhouse
How it was run: as §1

Compound	weed control effect, Abutilon theophrasti (level) [1]	weed control effect, Bidens pilosa (level) [1]	weed control effect, Digitaria sanguinalis (level) [1]	weed control effect, Echinochloa crus-galli (level) [1]	weed control effect, Rorippa indica (level) [1]	weed control effect, Setaria viridis (level) [1]	effect on crop, corn (level) [2]	effect on crop, rice (level) [2]	effect on crop, wheat (level) [2]
COCCCOCc1c(S(C)(=O)=O)ccc(C(=O)c2cnn(C)c2OC(=O)c2cnn(C)c2)c1Cl [Compound 62]	7 (Level 7: above 70% growth inhibition rate)	7 (Level 7: above 70% growth inhibition rate)	7 (Level 7: above 70% growth inhibition rate)	10	10	7 (Level 7: above 70% growth inhibition rate)	0	3 (Level 3: above 20% growth inhibition rate)	0
Cc1nn(C)c(OC(=O)c2cnn(C)c2)c1C(=O)c1ccc(S(C)(=O)=O)c(COCC(F)(F)F)c1Cl [Compound 63]	7 (Level 7: above 70% growth inhibition rate)	7 (Level 7: above 70% growth inhibition rate)	10	10	10	10	1 (Level 1: above 1-10% growth inhibition rate)	6 (Level 6: above 60% growth inhibition rate)	0
Cc1nn(C)c(OC(=O)c2cnn(C)c2)c1C(=O)c1ccc(S(C)(=O)=O)c(COCC(F)F)c1Cl [Compound 64]	5 (Level 5: above 50% growth inhibition rate)	5 (Level 5: above 50% growth inhibition rate)	9 (Level 9: above 90% growth inhibition rate)	10	10	10	2 (Level 2: above 10% growth inhibition rate)	3 (Level 3: above 20% growth inhibition rate)	0
Cc1nn(C)c(OC(=O)c2cnn(C)c2)c1C(=O)c1ccc(S(C)(=O)=O)c(COCC(F)(F)C(F)F)c1Cl [Compound 65]	6 (Level 6: above 60% growth inhibition rate)	7 (Level 7: above 70% growth inhibition rate)	7 (Level 7: above 70% growth inhibition rate)	10	10	6 (Level 6: above 60% growth inhibition rate)	0	3 (Level 3: above 20% growth inhibition rate)	0
Cn1cc(C(=O)Oc2c(C(=O)c3ccc(S(C)(=O)=O)c(COCC(F)(F)F)c3Cl)cnn2C)cn1 [Compound 67]	7 (Level 7: above 70% growth inhibition rate)	7 (Level 7: above 70% growth inhibition rate)	7 (Level 7: above 70% growth inhibition rate)	10	10	9 (Level 9: above 90% growth inhibition rate)	1 (Level 1: above 1-10% growth inhibition rate)	3 (Level 3: above 20% growth inhibition rate)	0
C#CCOCc1c(S(C)(=O)=O)ccc(C(=O)c2c(C)nn(C)c2OC(=O)c2cnn(C)c2)c1Cl [Compound 69]	7 (Level 7: above 70% growth inhibition rate)	7 (Level 7: above 70% growth inhibition rate)	6 (Level 6: above 60% growth inhibition rate)	10	10	6 (Level 6: above 60% growth inhibition rate)	0	3 (Level 3: above 20% growth inhibition rate)	0
CCOCc1c(S(C)(=O)=O)ccc(C(=O)c2c(C3CC3)nn(C)c2OC(=O)c2cnn(C)c2)c1Cl [Compound 70]	7 (Level 7: above 70% growth inhibition rate)	7 (Level 7: above 70% growth inhibition rate)	10	10	10	10	3 (Level 3: above 20% growth inhibition rate)	3 (Level 3: above 20% growth inhibition rate)	0
Cn1cc(C(=O)Oc2c(C(=O)c3ccc(S(C)(=O)=O)c(COCC(F)(F)C(F)F)c3Cl)c(C3CC3)nn2C)cn1 [Compound 71]	6 (Level 6: above 60% growth inhibition rate)	8 (Level 8: above 80% growth inhibition rate)	7 (Level 7: above 70% growth inhibition rate)	8 (Level 8: above 80% growth inhibition rate)	10	5 (Level 5: above 50% growth inhibition rate)	0	3 (Level 3: above 20% growth inhibition rate)	0
COCc1c(S(C)(=O)=O)ccc(C(=O)c2c(C3CC3)nn(C)c2OC(=O)c2cnn(C)c2)c1Cl [Compound 72]	7 (Level 7: above 70% growth inhibition rate)	7 (Level 7: above 70% growth inhibition rate)	8 (Level 8: above 80% growth inhibition rate)	10	10	8 (Level 8: above 80% growth inhibition rate)	2 (Level 2: above 10% growth inhibition rate)	3 (Level 3: above 20% growth inhibition rate)	0
CCOCc1c(S(C)(=O)=O)ccc(C(=O)c2c(C)nn(C)c2OC(=O)c2cnn(C)c2)c1Cl [Compound 73]	7 (Level 7: above 70% growth inhibition rate)	7 (Level 7: above 70% growth inhibition rate)	9 (Level 9: above 90% growth inhibition rate)	10	10	9 (Level 9: above 90% growth inhibition rate)	0	3 (Level 3: above 20% growth inhibition rate)	0
CCOCCOCc1c(S(C)(=O)=O)ccc(C(=O)c2c(C3CC3)nn(C)c2OC(=O)c2cnn(C)c2)c1Cl [Compound 74]	7 (Level 7: above 70% growth inhibition rate)	5 (Level 5: above 50% growth inhibition rate)	6 (Level 6: above 60% growth inhibition rate)	10	10	6 (Level 6: above 60% growth inhibition rate)	0	3 (Level 3: above 20% growth inhibition rate)	0
